Earlier results in US5183802A, “Pharmaceutical compositions for intranasal administration of calcitonin” (ISF Societa per Azioni, priority 1987, dated 1993).

Details: nasal absorption of insulin; compared with sodium caprate

Question: Which “strength as absorption-enhancing agent for insulin” value does the source give for `CC1(C)[C@@H](O)CC[C@]2(C)[C@H]3C(=O)C=C4[C@@H]5C[C@@](C)(C(=O)[O-])CC[C@]5(C)CC[C@@]4(C)[C@]3(C)CC[C@@H]12.[Na+]` [sodium glycyrrhetinate] here?
Answer: weaker than sodium caprate
